A word on the IC90: it is the point of the concentration-response curve where the effect stands at 90%.

Data on 12 compounds can be found in patent publication US20250179066A1, “ZWITTERIONIC ANTIBACTERIAL COMPOUNDS” (Hoffmann-La Roche Inc., priority 2022, published 2025).

Where a name gives a salt, the structure may show the parent alone.

The first experiment concerns Acinetobacter baumannii ATCC17961. Put plainly: Antimicrobial susceptibility testing: 90% growth inhibitory concentration (IC90) determination. The class given is cell-based. The settings on record: 90% growth inhibitory concentration against Acinetobacter baumannii ATCC17961, Iso-Sensitest broth, OD 600 nm over 16 h; read-out: ATCC 17961 IC90. The method, boiled down: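 Twofold serial dilutions (e.g. 10 to 0.0195 μM final) in Iso-Sensitest broth inoculated at ~5×10^5 CFU/mL, incubated at 35±2° C. OD600 read every minute for 16 h; IC90 is the concentration inhibiting 90% of growth during logarithmic phase.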
`Cn1c(-c2cn(-c3ccc(N)cc3F)nc2C(F)(F)F)cnc1C(=O)Nc1ccc(C(=O)N2CCN(C(=O)CCC[N+](CCCN)(CCCN)CCCC(=O)O)CC2)c(Cl)c1` [Example 182, [4-[4-[4-[[5-[1-(4-amino-2-fluoro-phenyl)-3-(trifluoromethyl)pyrazol-4-yl]-1-methyl-imidazole-2-carbonyl]amino]-2-chloro-benzoyl]piperazin-1-yl]-4-oxo-butyl]-bis(3-aminopropyl)-(3-carboxypropyl)ammonium; 2,2,2-trifluoroacetate]: the IC90 came out at 201 nM.

The same experiment, now with this note: Acinetobacter baumannii, ATCC17961, 16 h, 90% growth inhibitory concentration against Acinetobacter baumannii ATCC17961, Iso-Sensitest broth, OD 600 nm over 16 h; read-out: ATCC 17961 IC90.
Take `Cn1c(-c2cn(-c3cc4[nH]cc(C(=O)N5CCC(F)(F)CC5)c4cn3)nc2C(F)(F)F)cnc1C(=O)Nc1ccc(C(=O)N2CCN(C(=O)[C@H]3CC[N@+](CC(=O)O)(CC4CNC4)CC3)CC2)c(Cl)c1` [Example 179, cis-2-[1-(azetidin-3-ylmethyl)-4-[4-[2-chloro-4-[[5-[1-[3-(4,4-difluoropiperidine-1-carbonyl)-1H-pyrrolo[3,2-c]pyridin-6-yl]-3-(trifluoromethyl)pyrazol-4-yl]-1-methyl-imidazole-2-carbonyl]amino]benzoyl]piperazine-1-carbonyl]piperidin-1-ium-1-yl]acetic acid. 1:1 2,2,2-trifluoroacetate]: the IC90 turned out to be 95.8 nM.
On the same count and under the same terms, the same measure for `Cn1c(-c2cn(-c3cc4[nH]c(CO)cc4cn3)nc2C(F)(F)F)cnc1C(=O)Nc1ccc(C(=O)N2CCN(C(=O)[C@H]3CC[N@+](CC(=O)O)(CC4CNC4)CC3)CC2)c(Cl)c1` [Example 180, cis-2-[1-(azetidin-3-ylmethyl)-4-[4-[2-chloro-4-[[1-methyl-5-[1-(2-methylol-1H-pyrrolo[3,2-c]pyridin-6-yl)-3-(trifluoromethyl)pyrazol-4-yl]imidazole-2-carbonyl]amino]benzoyl]piperazine-1-carbonyl]piperidin-1-ium-1-yl]acetic acid. 1:1 2,2,2-trifluoroacetate]: 135 nM; for `Cn1c(-c2cn(-c3ccc(N)cc3F)nc2C(F)(F)F)cnc1C(=O)Nc1ccc(C(=O)N2CCN(C(=O)C3CC[N+](CCCC(=O)O)(CC4CNC4)CC3)CC2)c(Cl)c1` (stereo not drawn) [Example 181, 4-[4-[4-[4-[[5-[1-(4-amino-2-fluoro-phenyl)-3-(trifluoromethyl)pyrazol-4-yl]-1-methyl-imidazole-2-carbonyl]amino]-2-chloro-benzoyl]piperazine-1-carbonyl]-1-(azetidin-3-ylmethyl)piperidin-1-ium-1-yl]butanoic acid;formate]: 244 nM; for `Cn1c(-c2cn(-c3ccc(N)cc3F)nc2C(F)(F)F)cnc1C(=O)Nc1ccc(C(=O)N2CCN(C(=O)CCC[N+](CCCN)(CCCN)CC(=O)O)CC2)c(Cl)c1` [Example 183, [4-[4-[4-[[5-[1-(4-amino-2-fluoro-phenyl)-3-(trifluoromethyl)pyrazol-4-yl]-1-methyl-imidazole-2-carbonyl]amino]-2-chloro-benzoyl]piperazin-1-yl]-4-oxo-butyl]-bis(3-aminopropyl)-(carboxymethyl)ammonium;formate]: 108 nM.
Take `Cn1c(-c2cn(-c3ccc4[nH]c(CN)cc4n3)nc2C(F)(F)F)cnc1C(=O)Nc1ccc(C(=O)N2CCN(C(=O)[C@H]3CC[N@+](CC(=O)O)(CC4CNC4)CC3)CC2)c(Cl)c1` [Example 184, cis-2-[4-[4-[4-[[5-[1-[2-(aminomethyl)-1H-pyrrolo[3,2-b]pyridin-5-yl]-3-(trifluoromethyl)pyrazol-4-yl]-1-methyl-imidazole-2-carbonyl]amino]-2-chloro-benzoyl]piperazine-1-carbonyl]-1-(azetidin-3-ylmethyl)piperidin-1-ium-1-yl]acetic acid;formate]: the IC90 came out at 64.2 nM.
Still for that read-out and setting: the same measure for `COCCNc1ccc(-n2cc(-c3cnc(C(=O)Nc4ccc(C(=O)N5CCN(C(=O)[C@H]6CC[N@+](CC(=O)O)(CC7CNC7)CC6)CC5)c(Cl)c4)n3C)c(C(F)(F)F)n2)c(F)c1` [Example 185, cis-2-[1-(azetidin-3-ylmethyl)-4-[4-[2-chloro-4-[[5-[1-[2-fluoro-4-(2-methoxyethylamino)phenyl]-3-(trifluoromethyl)pyrazol-4-yl]-1-methyl-imidazole-2-carbonyl]amino]benzoyl]piperazine-1-carbonyl]piperidin-1-ium-1-yl]acetic acid. 1:1 2,2,2-trifluoroacetate]: 196 nM; for `Cn1c(-c2cn(-c3ccc(NCCCN)cc3F)nc2C(F)(F)F)cnc1C(=O)Nc1ccc(C(=O)N2CCN(C(=O)[C@H]3CC[N@+](CC(=O)O)(CC4CNC4)CC3)CC2)c(Cl)c1` [Example 186, cis-2-[4-[4-[4-[[5-[1-[4-(3-aminopropylamino)-2-fluoro-phenyl]-3-(trifluoromethyl)pyrazol-4-yl]-1-methyl-imidazole-2-carbonyl]amino]-2-chloro-benzoyl]piperazine-1-carbonyl]-1-(azetidin-3-ylmethyl)piperidin-1-ium-1-yl]acetic Acid.1:1 formate]: 160 nM.
Same read-out and setting: the same measure for `CN(C)CC[N@+]1(CC(=O)O)CC[C@H](C(=O)N2CCN(C(=O)c3ccc(NC(=O)c4ncc(-c5cn(-c6ccc(N)cc6F)nc5C(F)(F)F)n4C)cc3Cl)CC2)CC1` [Example 187, trans-2-[4-[4-[4-[[5-[1-(4-amino-2-fluoro-phenyl)-3-(trifluoromethyl)pyrazol-4-yl]-1-methyl-imidazole-2-carbonyl]amino]-2-chloro-benzoyl]piperazine-1-carbonyl]-1-[2-(dimethylamino)ethyl]piperidin-1-ium-1-yl]acetic acid;2,2,2-trifluoroacetate]: 745 nM; for `CN(C)CC[N@+]1(CC(=O)O)CC[C@@H](C(=O)N2CCN(C(=O)c3ccc(NC(=O)c4ncc(-c5cn(-c6ccc(N)cc6F)nc5C(F)(F)F)n4C)cc3Cl)CC2)CC1` [Example 188, cis-2-[4-[4-[4-[[5-[1-(4-amino-2-fluoro-phenyl)-3-(trifluoromethyl)pyrazol-4-yl]-1-methyl-imidazole-2-carbonyl]amino]-2-chloro-benzoyl]piperazine-1-carbonyl]-1-[2-(dimethylamino)ethyl]piperidin-1-ium-1-yl]acetic acid;2,2,2-trifluoroacetate]: 540 nM.
Same read-out and setting: the same measure for `Cn1c(-c2cn(-c3cc4[nH]c(CN)cc4cn3)nc2C(F)(F)F)cnc1C(=O)Nc1ccc(C(=O)N2CCN(C(=O)[C@H]3CC[N@+](CC(=O)O)(CC4CNC4)CC3)CC2)c(Cl)c1` [Example 189, cis-2-[4-[4-[4-[[5-[1-[2-(aminomethyl)-1H-pyrrolo[3,2-c]pyridin-6-yl]-3-(trifluoromethyl)pyrazol-4-yl]-1-methyl-imidazole-2-carbonyl]amino]-2-chloro-benzoyl]piperazine-1-carbonyl]-1-(azetidin-3-ylmethyl)piperidin-1-ium-1-yl]acetic acid;formic acid;formate]: 53.2 nM; for `Cn1c(-c2cn(-c3ccc4c(ccn4CCN)n3)nc2C(F)(F)F)cnc1C(=O)Nc1ccc(C(=O)N2CCN(C(=O)[C@H]3CC[N@+](CC(=O)O)(CC4CNC4)CC3)CC2)c(Cl)c1` [Example 190, cis-2-[4-[4-[4-[[5-[1-[1-(2-aminoethyl)pyrrolo[3,2-b]pyridin-5-yl]-3-(trifluoromethyl)pyrazol-4-yl]-1-methyl-imidazole-2-carbonyl]amino]-2-chloro-benzoyl]piperazine-1-carbonyl]-1-(azetidin-3-ylmethyl)piperidin-1-ium-1-yl]acetic acid. 1:1 hydrogen chloride. 1:1 chloride]: 199 nM.
